Test results reported in patent publication US20260144879A1, “ANTI-VIRAL AND HEPATIC-TARGETED DRUGS” (AI-BIOPHARMA, priority 2019, published 2026).

Key:
[1] = system: HBV (genotype D, serotype ayw, Galibert's strain); assay: Quantification of virion associated secreted HBV DNA in supernatant of HBV-infected differentiated HepaRG (dHepaRG) cells by qPCR, % of replication vs DMSO; assay type: cell-based, hepatitis B virus; details: 1 μM compound, 7 days treatment, DMSO = 100%; for activity at 1 µM: Hepatitis B virus, HepaRG, 168 h, read-out: dHepaRG HBV % of replication at 1 μM compared to DMSO
Description: (§1) From Methods in Lucifora J. et al. (Direct antiviral properties of TLR ligands against HBV replication in immune-competent hepatocytes, Science Scientific Reports, 2018, 8:5390): • 1) HepaRG cells were cultured, as described previously by Gripon P. et al. (Infection of a human hepatoma cell line by hepatitis B virus. Proc Natl Acad Sci USA, 2002, 99, p 15655-15660) on pages 15655 and 15656, in Williams E medium supplemented with 10% fetal calf serum, 50 U penicillin/streptomycin (Gibco-Invitrogen) ml^−1, […] ml^−1 and 5×10^−7 M hydrocortisone hemisuccinate (Roche Diagnostics and Boehringer Mannheim, respectively). The cell cultures were maintained in a 5% CO2 atmosphere at 37° C. During the proliferation phase, culture medium was renewed every 2 days. For differentiation and infection, cells were maintained for 2 weeks in standard medium and then for at least 2 more weeks in medium supplemented with 1.8-2.0% DMSO (Sigma). • 2) Primary Human Hepatocytes (PHH) were freshly prepared from human liver resection as previously described by Lecluyse, E. L. & Alexandre, E. (Isolation and culture of primary hepatocytes from resected human liver tissue. Methods Mol Biol, 2010, 640, p 57-82, https://doi.org/10.1007/978-1-60761-688-7_3) on page 63 paragraph 3. “Methods” from section 3.1. through 3.6.2. page 77. All experimental procedures were conducted in conformity with French laws and regulations and were approved by the National Ethics Committee. • 3) Cell viability was measured by both neutral red and MTS (CellTiter 96 Aqueous One Solution cell proliferation assay; Promega) tests. • 4) HBV inoculum (genotype D, serotype ayw, Galibert's strain referred as NC_003977.2 at NCBI) was prepared from HepAD38 (see Ladner, S. K. et al., Inducible expression of human hepatitis B virus (HBV) in stably transfected hepatoblastoma cells: a novel system for screening potential inhibitors of HBV replication. Antimicrob Agents Chemother, 1997, 41, p 1715-1720) supernatants by polyethylene-glycol-MW-8000 (PEG8000, SIGMA) precipitation (8% final) as previously described by Luangsay, S. et al. (Early inhibition of hepatocyte innate responses by hepatitis B virus. J Hepatol, 2015, 63, p 1314-1322, https://doi.org/10.1016/j.jhep.2015.07.014).
(§2) Viral stocks with titer reaching at least 1×10^10 viral genome equivalent (vge)/mL were tested endotoxin free.
(§3) Differentiated HepaRG (dHepaRG) or PHH were infected by HBV at a multiplicity of infection of 100-200 vge/cell in culture medium containing 4% PEG 8000 (Sigma) for 16 h at 37° C. in 12- or six-well plates. At the end of the incubation period, cells were washed once with medium and then cultured in Williams E medium containing DMSO as indicated. In general infection was left for 7 days before any treatment was started, to allow replication reaching its maximum. • 5) Infected cell treatment with compounds of interest: • 5a: After 7 days of infection with the virus (day 0 to day 7), the dHepaRG cells were treated (3 treatments: day 7, day 10 and day 12) with a […] of the tested compound (diluted with sterile water from a 10 mM stock DMSO solution) or DMSO as reference negative control for 7 more days. • 5b: After 4 days of infection with the virus (day 0 to day 4), the PHH cells were treated (3 treatments: day 4, day 7 and day 9) with a […] of the tested compound (diluted with sterile water from a 10 mM stock DMSO solution) for 7 more days. • 6) Quantification of virion associated secreted HBV DNA in cell culture supernatant:
(§4) At the end of the experiment (7 days treatment) the supernatant of infected and treated cells (either dHepaRG or PHH or others) is collected. It is diluted 1/4 into sterile water (molecular biology quality) then treated for 30 minutes with RNAse (10 unit) and DNAse (10 unit) to remove non encapsidated material. […]

[2] = system: HBV (genotype D, serotype ayw, Galibert's strain); assay: Quantification of virion associated secreted HBV DNA in supernatant of HBV-infected Primary Human Hepatocytes (PHH) by qPCR, % of replication vs DMSO; assay type: cell-based, hepatitis B virus; details: 1 μM compound, 7 days treatment, DMSO = 100%; for activity at 1 µM: Hepatitis B virus, Hepatocyte, 168 h, (*) n = 1, read-out: PHH HBV % of replication at 1 μM compared to DMSO; for PHH HBV % of replication at 1 μM compared to DMSO: (*) n = 1
Description: as §1, §2, §3, §4

[3] = Cell viability by neutral red and MTS (CellTiter 96 Aqueous One Solution) tests, HepaRG cells; assay type: cell-based, human; details: human, differentiated HepaRG (dHepaRG) cells, CellTiter-Glo, read-out: Cytotoxicity (CC50 in μM) in dHepaRG CellTiter-Glo
Description: (§5) From Methods in Lucifora J. et al. (Direct antiviral properties of TLR ligands against HBV replication in immune-competent hepatocytes, Science Scientific Reports, 2018, 8:5390): • 1) HepaRG cells were cultured, as described previously by Gripon P. et al. (Infection of a human hepatoma cell line by hepatitis B virus. Proc Natl Acad Sci USA, 2002, 99, p 15655-15660) on pages 15655 and 15656, in Williams E medium supplemented with 10% fetal calf serum, 50 U penicillin/streptomycin (Gibco-Invitrogen) ml^−1, […] ml^−1 and 5×10^−7 M hydrocortisone hemisuccinate (Roche Diagnostics and Boehringer Mannheim, respectively). The cell cultures were maintained in a 5% CO2 atmosphere at 37° C. During the proliferation phase, culture medium was renewed every 2 days. For differentiation and infection, cells were maintained for 2 weeks in standard medium and then for at least 2 more weeks in medium supplemented with 1.8-2.0% DMSO (Sigma). • 2) Primary Human Hepatocytes (PHH) were freshly prepared from human liver resection as previously described by Lecluyse, E. L. & Alexandre, E. (Isolation and culture of primary hepatocytes from resected human liver tissue. Methods Mol Biol, 2010, 640, p 57-82, https://doi.org/10.1007/978-1-60761-688-7_3) on page 63 paragraph 3. “Methods” from section 3.1. through 3.6.2. page 77. […] K. et al., Inducible expression of human hepatitis B virus (HBV) in stably transfected hepatoblastoma cells: a novel system for screening potential inhibitors of HBV replication. Antimicrob Agents Chemother, 1997, 41, p 1715-1720) supernatants by polyethylene-glycol-MW-8000 (PEG8000, SIGMA) precipitation (8% final) as previously described by Luangsay, S. et al. (Early inhibition of hepatocyte innate responses by hepatitis B virus. J Hepatol, 2015, 63, p 1314-1322, https://doi.org/10.1016/j.jhep.2015.07.014).

HepaRG cells = assay: as above; assay type: cell-based, human; details: dHepaRG cells, CellTiter-Glo; read-out: Cytotoxicity (CC50 in μM) in dHepaRG CellTiter-Glo
Description: as §5

Structure (SMILES) | activity at 1 µM [1] [%] | activity at 1 µM [2] [%] | CC50 [3] [µM] | dHepaRG HBV % of replication at 1 μM compared to DMSO [1] | PHH HBV % of replication at 1 μM compared to DMSO [2] | CC50 (HepaRG cells) [µM]
CC(C)OC(=O)CC1COP(=O)(CO[C@H](C)Cn2cnc3c(N)ncnc32)OC1 (stereo partly drawn) [Example 3, (R)-isopropyl 2-(2-(((1-(6-amino-9H-purin-9-yl)propan-2-yl)oxy)methyl)-2-oxo-1,3,2-dioxaphosphinan-5-yl)acetate] | ≤ 30 | ≤ 30 | > 50 | – | – | –
CC(C)OC(=O)CC1COP(=O)(CO[C@H](C)Cn2cnc3c(N(C(=O)c4ccccc4)C(=O)c4ccccc4)ncnc32)OC1 (stereo partly drawn) [Example 20, (R)-isopropyl 2-(2-(((1-(6-(N-benzoylbenzamido)-9H-purin-9-yl)propan-2-yl)oxy)methyl)-2-oxido-1,3,2-dioxaphosphinan-5-yl)acetate] | ≤ 30 | ≤ 30 | > 50 | – | – | –
CC(C)OC(=O)CC1COP(=O)(CO[C@H](C)Cn2cnc3c(NC(=O)c4ccccc4)ncnc32)OC1 (stereo partly drawn) [Example 21, (R)-isopropyl 2-(2-(((1-(6-benzamido-9H-purin-9-yl)propan-2-yl)oxy)methyl)-2-oxo-1,3,2-dioxaphosphinan-5-yl)acetate] | ≤ 30 | ≤ 30 | > 50 | – | – | –
CC(C)OC(=O)[C@H](C)N[P@](=O)(CO[C@H](C)Cn1cnc2c(N)ncnc21)Oc1ccccc1 [TAF] | – | – | – | ++++ (++++ ≤ 30%) | ++++ (++++ ≤ 30%) | < 10
C[C@H](Cn1cnc2c(N)ncnc21)OCP(=O)(O)O [TFV] | – | – | – | ++++ (++++ ≤ 30%) | ++++ (++++ ≤ 30%) | > 50
